In US9993564B2, “Blood brain barrier shuttle” (Hoffmann-La Roche Inc., priority 2014, dated 2018):

Key:
[1] = in vivo phage display selection (4 rounds) with CSF sampling, sequencing of CSF recovered phage clones; set-up: species or system rat; conditions: for Reads: CSF recovered phage clones after 4 rounds of in vivo selection in rats, 924 sequencing in total; for Frequency (%): frequency of each peptide related to the 924 total sequencing runs, CSF, after 4 rounds of in vivo selection in rats
[2] = tested on: brain blood vessels and capillaries; assay: immunohistochemistry of intravenously administered phage clones bound to brain vasculature; type: in vivo; conditions: FIG. 5, no staining with empty phage
Source text: Specific phage clones were intravenously administered to allow targeting in vivo. Subsequently, immunohistochemistry was used to detect the phages specifically bound to the brain blood vessels and capillaries. […] ID. NO. 1, SEQ. ID. NO. 6 and SEQ. ID. NO.
ID. NO. 8 is linked to SA through an N-terminal biotin. […] ID. NO.

Substance: 1 (LYVLHSRGLWGFKL; Brain targeting peptide) [compound 1]
- Reads [1]: 147
- Frequency (%) [1]: 15.9%

Substance: 2 (LGSVS; Brain targeting peptide) [compound 2]
- Reads [1]: 137
- Frequency (%) [1]: 14.8%

Substance: 3 (GFVRFRLSNTR; Brain targeting peptide) [compound 3]
- Reads [1]: 115
- Frequency (%) [1]: 12.4%

Substance: 4 (KVAWRVFSLFWK; Brain targeting peptide) [compound 4]
- Reads [1]: 57
- Frequency (%) [1]: 6.1%

Substance: 5 (SVHGV; Brain targeting peptide) [compound 5]
- Reads [1]: 40
- Frequency (%) [1]: 6.1%

Substance: 6 (GRPQKINGARVC; Brain targeting peptide) [compound 6]
- Reads [1]: 29
- Frequency (%) [1]: 4.3%

Substance: 7 (MRWFFSHASQGR; Brain targeting peptide) [compound 7]
- Reads [1]: 28
- Frequency (%) [1]: 3.1%

Substance: 8 (RLSSVDSDLSGC; Brain targeting peptide) [compound 8]
- Reads [1]: 26
- Frequency (%) [1]: 3.0%

Substance: 9 (IGTLTT; Brain targeting peptide) [compound 9]
- Reads [1]: 22
- Frequency (%) [1]: 2.8%

Substance: 10 (YNQSLLQGYRYW; Brain targeting peptide) [compound 10]
- Reads [1]: 21
- Frequency (%) [1]: 2.3%

Substance: 11 (RSTASTSYPFFF; Brain targeting peptide) [compound 11]
- Reads [1]: 17
- Frequency (%) [1]: 2.2%

Substance: 12 (ISNRSHKGLMVG; Brain targeting peptide) [compound 12]
- Reads [1]: 16
- Frequency (%) [1]: 1.8%

Substance: 13 (DAAESVLVGTVR; Brain targeting peptide) [compound 13]
- Reads [1]: 15
- Frequency (%) [1]: 1.7%

Substance: 14 (YAWGGGWVLQWF; Brain targeting peptide) [compound 14]
- Reads [1]: 12
- Frequency (%) [1]: 1.6%

Substance: 15 (YSMVFVGIKL; Brain targeting peptide) [compound 15]
- Reads [1]: 10
- Frequency (%) [1]: 1.2%

Substance: 16 (DVAKVS; Brain targeting peptide) [compound 16]
- Reads [1]: 10
- Frequency (%) [1]: 1.0%

Substance: 17 (RRPAPLIMFRMI; Brain targeting peptide) [compound 17]
- Reads [1]: 9
- Frequency (%) [1]: 1.0%

Substance: 18 (DPQILMGVLRSIRGFGVKL; Brain targeting peptide) [compound 18]
- Reads [1]: 9
- Frequency (%) [1]: 0.9%

Substance: 19 (SRYSIGGNNGVT; Brain targeting peptide) [compound 19]
- Reads [1]: 7
- Frequency (%) [1]: 0.9%

Substance: 20 (SGSGIGLDRWRV; Brain targeting peptide) [compound 20]
- Reads [1]: 7
- Frequency (%) [1]: 0.7%

Substance: 21 (WGCNGTEWRGLLGIKL; Brain targeting peptide) [compound 21]
- Reads [1]: 6
- Frequency (%) [1]: 0.7%

Substance: 22 (NSHAMSC; Brain targeting peptide) [compound 22]
- Reads [1]: 5
- Frequency (%) [1]: 0.6%

Substance: 23 (STVVCFKGVPTG; Brain targeting peptide) [compound 23]
- Reads [1]: 5
- Frequency (%) [1]: 0.5%

Substance: 24 (TWLFSLG; Brain targeting peptide) [compound 24]
- Reads [1]: 4
- Frequency (%) [1]: 0.5%

Substance: 25 (LPGGSPGHILVC; Brain targeting peptide) [compound 25]
- Reads [1]: 4
- Frequency (%) [1]: 0.4%

Substance: 26 (GWIPYDGGNRAR; Brain targeting peptide) [compound 26]
- Reads [1]: 4
- Frequency (%) [1]: 0.4%

Substance: 27 (STMRYVGVTCL; Brain targeting peptide) [compound 27]
- Reads [1]: 3
- Frequency (%) [1]: 0.4%

Substance: 28 (GCASPASTSFHS; Brain targeting peptide) [compound 28]
- Reads [1]: 3
- Frequency (%) [1]: 0.3%

Substance: 29 (LRPRGAFQRRDFKL; Brain targeting peptide) [compound 29]
- Reads [1]: 3
- Frequency (%) [1]: 0.3%

Substance: 30 (ELVHA; Brain targeting peptide) [compound 30]
- Reads [1]: 3
- Frequency (%) [1]: 0.3%

Substance: 31 (FLIQWGAVLSRG; Brain targeting peptide) [compound 31]
- Reads [1]: 2
- Frequency (%) [1]: 0.3%

Substance: 32 (VRDWAYVYSTVL; Brain targeting peptide) [compound 32]
- Reads [1]: 2
- Frequency (%) [1]: 0.2%

Substance: 33 (TAVFSALSMLRG; Brain targeting peptide) [compound 33]
- Reads [1]: 2
- Frequency (%) [1]: 0.2%

Substance: 34 (AVES; Brain targeting peptide) [compound 34]
- Reads [1]: 2
- Frequency (%) [1]: 0.2%

Substance: 35 (RPRAQGAL; Brain targeting peptide) [compound 35]
- Reads [1]: 2
- Frequency (%) [1]: 0.2%

Substance: 36 (LWVSVPRARIIQ; Brain targeting peptide) [compound 36]
- Reads [1]: 2
- Frequency (%) [1]: 0.2%

Substance: GRPQKINGARVC [SEQ. ID. NO. 6]
- staining at brain capillaries in the cortex (immunohistochemistry) [2]: strong and specific staining

Substance: LYVLHSRGLWGFKL (displayed on T7 phage; Brain targeting peptide) [SEQ. ID. NO. 1]
- staining at brain capillaries in the cortex (immunohistochemistry) [2]: strong and specific staining
